What all share (assay): in vivo wide-field GCaMP3 calcium imaging of identified glomeruli, awake mice
The target of experiment [1] is T1, TAAR3 (Mus musculus, UniProt Q5QD16).
T1 construct: full-length native receptor from endogenous locus in olfactory sensory neurons; allele TAAR3-IRES-tauVenus (TAAR3-YFP); receptor itself untagged
T1 sequence (Q5QD16 1-343): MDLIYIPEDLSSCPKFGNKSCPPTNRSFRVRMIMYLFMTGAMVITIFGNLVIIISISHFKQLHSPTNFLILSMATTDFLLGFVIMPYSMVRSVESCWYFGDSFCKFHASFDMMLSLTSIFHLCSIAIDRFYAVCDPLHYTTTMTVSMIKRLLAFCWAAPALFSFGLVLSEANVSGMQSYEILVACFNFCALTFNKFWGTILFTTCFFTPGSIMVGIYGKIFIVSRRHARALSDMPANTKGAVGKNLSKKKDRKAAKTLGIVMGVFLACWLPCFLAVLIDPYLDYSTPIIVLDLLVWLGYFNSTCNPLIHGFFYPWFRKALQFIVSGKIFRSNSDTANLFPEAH
Conditions: agonist, vapour-phase odorant concentration (flow dilution olfactometer), not aqueous, glomerular read-out.

Experiment [2] deals with T2, TAAR4 (Mus musculus, UniProt Q5QD15).
T2 construct: full-length native receptor from endogenous locus in olfactory sensory neurons; allele TAAR4-IRES-tauCherry (TAAR4-RFP); receptor itself untagged
T2 sequence (Q5QD15 1-347): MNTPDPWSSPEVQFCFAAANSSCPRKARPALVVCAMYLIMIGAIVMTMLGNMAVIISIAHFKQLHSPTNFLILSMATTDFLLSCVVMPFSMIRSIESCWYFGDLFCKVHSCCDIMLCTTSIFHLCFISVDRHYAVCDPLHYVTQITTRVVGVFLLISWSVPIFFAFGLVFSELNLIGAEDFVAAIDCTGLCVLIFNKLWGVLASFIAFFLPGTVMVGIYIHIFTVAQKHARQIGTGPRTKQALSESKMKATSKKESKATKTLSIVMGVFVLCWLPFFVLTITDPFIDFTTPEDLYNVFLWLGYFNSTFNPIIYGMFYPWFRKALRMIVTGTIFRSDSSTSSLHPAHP
Conditions: agonist; vapour-phase odorant concentration (flow dilution olfactometer), not aqueous; glomerular read-out.

The target in experiment [3] is T3, TAAR5 (Mus musculus, UniProt Q5QD14).
T3 construct: full-length native receptor in olfactory sensory neurons; glomeruli identified by response profile and from separate TAAR5-RFP imaging experiments
T3 sequence (Q5QD14 1-337): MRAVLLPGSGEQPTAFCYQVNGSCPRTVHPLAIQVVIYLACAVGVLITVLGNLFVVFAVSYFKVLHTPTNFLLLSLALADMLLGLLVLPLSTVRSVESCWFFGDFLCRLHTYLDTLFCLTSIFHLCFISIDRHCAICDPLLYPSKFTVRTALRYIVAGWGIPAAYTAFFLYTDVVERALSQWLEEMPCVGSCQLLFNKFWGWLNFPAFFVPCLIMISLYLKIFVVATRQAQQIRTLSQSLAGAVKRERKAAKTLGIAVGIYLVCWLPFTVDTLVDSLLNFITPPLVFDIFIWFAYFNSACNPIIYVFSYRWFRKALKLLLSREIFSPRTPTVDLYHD
Conditions: agonist; vapour-phase odorant concentration (flow dilution olfactometer), not aqueous; glomerular read-out.

For `CC(C)CCN` [isopentylamine], the EC50 (as a rule, the concentration needed to bring the measured effect to its halfway point) in experiment [1] worked out at 0.00041 µM; in experiment [2], 0.0099 µM.
Take `NCCc1ccccc1` [phenylethylamine]: in experiment [1] (printed CI does not contain the value), the 50% effective concentration (EC50) came out at 0.00019 µM.
Turning to `CN(C)C` [trimethylamine], the concentration giving a half-maximal response (EC50) in experiment [1] came to 0.79 µM; in experiment [3], 0.031 µM; in experiment [2] it was 0.47 µM.

The values are drawn from PMC6056506, “Single olfactory receptors set odor detection thresholds” (Nature Communications, 2018).
